Experimental data taken from patent US10065988B2, “Peptoid affinity ligands” (Stefano Menegatti, priority 2013, dated 2018).
*1 amine or outer side, *2 acyl side, *3 side chain or, on linkers, in order; H or OH if unused. Where a SMILES comes first, the peptide text is derived from it. [ ]: non-standard residue; d: D form. Gly(N(CH2)2(3-indolyl)) = O=C(O)CNCCc1c[nH]c2ccccc12; Gly(N-(CH2)3-guanidino) = N=C(N)NCCCNCC(=O)O; X1 = O=C(CN(CCc1ncc[nH]1)[*:1])[*:2]; Gly(N(CH2)3NH2) = NCCCNCC(=O)O; N(iPr)Gly = CC(C)NCC(=O)O

The compounds below were run on human IgG (hIgG) (assay: Batch mode IgG binding to peptoid-functionalized Toyopearl AF-amino 650 M resin). Conditions: polyclonal hIgG 0.5 mg/mL in PBS, 2 mg hIgG per mL resin, 45 min at 22° C., elution 0.1 M glycine pH 2.5, ELISA and SDS-PAGE (FIG. 1, FIG. 2).
Excerpt: FIG. 1. Batch mode IgG adsorption to Toyopearl AF-amino 650 M resins functionalized with different peptoid ligands. IgG in the flow-through fractions (black) indicate the percent hIgG that was not adsorbed to the resin relative to the mass of hIgG loaded. The elution fractions (grey) indicate the percent of human IgG that was bound in phosphate buffered saline (PBS) and eluted (0.1 M glycine, pH 2.5) relative to the initial concentration of IgG that was loaded. Concentrations of hIgG in all fractions were determined by ELISA. The unmodified resin served as the negative control. Binding trials were done in duplicate for each resin.
FIG. 2. Reducing SDS-PAGE analysis of elution and flow-through fractions from hIgG adsorption experiments. Lanes designated “FT” and “Elute” are the flow-through and elution fractions, respectively. The lane marked “hIgG loaded” is the pre-adsorbed hIgG solution that was incubated with each resin tested. The heavy and light chains of hIgG migrate at ˜55 and ˜25 kDa, respectively, on reducing SDS-PAGE gels.
IgG Binding to Resin: The ability of the peptoid affinity ligands to bind human IgG (hIgG) was tested in batch mode. A 50% slurry of the resin was prepared, of which 200 μl (˜100 mg resin) was transferred into the spin column. The resin was throughly washed with dH2O and equilibrated with PBS prior to hIgG exposure. Polyclonal hIgG (Equitech-Bio) was diluted to 0.5 mg/mL with PBS. After equilibration, a 0.5 mg/mL solution of hIgG was added to the resin to achieve a ratio of 2 mg hIgG per mL of resin, and allowed to incubate for 45 min at 22° C. with vigorous shaking. After incubation, the resin was centrifuged at 500×g for 2 min in which the filtrate of this step was collected and labeled as “flow-through” fraction. The resin was subsequently washed 2× with PBS. Elution buffer (0.1 M glycine, pH 2.5) was added to the resin and mixed vigorously for 10 min at 22° C. After centrifugation (500×g for 2 min) bound hIgG was eluted from the resin and collected in the filtrate. The amount of hIgG found in the flow-through and elution fraction was determined using an ELISA-based quantitative assay (Bethyl, Cat. No. E80-104). hIgG yields were determined as the ratio of hIgG mass in the elution fraction and hIgG mass in the loading solution (FIG. 1). SDS-PAGE analysis of all collected fractions was carried out to determine product purity and evaluate the ligand selectivity (FIG. 2).

Ability of the peptoid affinity ligands to bind human IgG (hIgG) to the resin, useful for binding IgG to the resin:
CC(C)N(CC(=O)O)C(=O)CN(CCc1c[nH]c2ccccc12)C(=O)CNC(=O)CN(CCCNC(=N)N)C(=O)CN(CCc1c[nH]c2ccccc12)C(=O)CNCCc1ncc[nH]1 [Ligand G001] (H-[X1][Gly(N(CH2)2(3-indolyl))][Gly(N-(CH2)3-guanidino)]G[Gly(N(CH2)2(3-indolyl))][N(iPr)Gly]-OH)
N=C(N)NCCCN(CC(=O)NCC(=O)O)C(=O)CN(CCc1c[nH]c2ccccc12)C(=O)CNCCc1ncc[nH]1 [Ligand G003]
N=C(N)NCCCN(CC(=O)O)C(=O)CN(CCc1c[nH]c2ccccc12)C(=O)CNCCc1ncc[nH]1 [Ligand G005]
CC(C)N(CC(=O)O)C(=O)CN(CCc1c[nH]c2ccccc12)C(=O)CNC(=O)CN(CCCN)C(=O)CN(CCc1c[nH]c2ccccc12)C(=O)CNCCc1ncc[nH]1 [Ligand G012] (H-[X1][Gly(N(CH2)2(3-indolyl))][Gly(N(CH2)3NH2)]G[Gly(N(CH2)2(3-indolyl))][N(iPr)Gly]-OH)
